Source: patent publication US20200354426A1 (MEDIMMUNE LIMITED, priority 2016, published 2020)
Numbered stars: 1 amine (or outer) side, 2 acyl side, 3 side chain; on linkers, the order of the positions; unused ones are H or OH. Side chains are listed from the residue outwards. Peptide text beside a SMILES is read from it. * marks the point of attachment. γGlu = O=C(O)[C@H](CCC(=O)[*:2])N[*:1]; Palmitoyl = CCCCCCCCCCCCCCCC(=O)*

Assays:
Experiment in all cases: cAMP activity assay in assay medium (assay 1)
Assay type in all cases: cell-based
Human GIPr = target: T1, Human GIPr (Homo sapiens, UniProt P48546); conditions: assay medium; Table 4; read-out: hGIPR EC50
T1 construct: expressed in transfected cells
T1 sequence (P48546 22-466): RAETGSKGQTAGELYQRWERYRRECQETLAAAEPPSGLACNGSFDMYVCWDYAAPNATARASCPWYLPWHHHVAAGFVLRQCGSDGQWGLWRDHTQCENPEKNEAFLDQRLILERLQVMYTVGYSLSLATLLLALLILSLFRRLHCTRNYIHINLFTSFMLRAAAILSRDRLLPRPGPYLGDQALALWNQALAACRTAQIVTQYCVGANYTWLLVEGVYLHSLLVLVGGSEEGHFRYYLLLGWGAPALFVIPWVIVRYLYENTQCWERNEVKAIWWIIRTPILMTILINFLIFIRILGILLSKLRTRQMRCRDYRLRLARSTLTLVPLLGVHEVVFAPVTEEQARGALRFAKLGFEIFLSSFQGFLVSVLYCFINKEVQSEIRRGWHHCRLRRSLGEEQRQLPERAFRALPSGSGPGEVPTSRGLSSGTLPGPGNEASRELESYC
Excerpt: (§1) Biological Activity of Peptides in Cell-Based cAMP Activity Assay (Assay 1):
(§2) All sample dilutions were made in duplicate.

Human GlucR = target: T2, Human GlucR (Homo sapiens, UniProt P47871); conditions: assay medium; Table 4; read-out: hGlucR EC50
T2 construct: expressed in transfected cells
Excerpt: as §1, §2

Human GLP1R = Human GLP1R (Homo sapiens, UniProt P43220); parameters: expressed in transfected cells; conditions: assay medium; Table 4; read-out: hGLP1R EC50
Excerpt: as §1, §2

Human GLP1R, sequence (P43220 24-463): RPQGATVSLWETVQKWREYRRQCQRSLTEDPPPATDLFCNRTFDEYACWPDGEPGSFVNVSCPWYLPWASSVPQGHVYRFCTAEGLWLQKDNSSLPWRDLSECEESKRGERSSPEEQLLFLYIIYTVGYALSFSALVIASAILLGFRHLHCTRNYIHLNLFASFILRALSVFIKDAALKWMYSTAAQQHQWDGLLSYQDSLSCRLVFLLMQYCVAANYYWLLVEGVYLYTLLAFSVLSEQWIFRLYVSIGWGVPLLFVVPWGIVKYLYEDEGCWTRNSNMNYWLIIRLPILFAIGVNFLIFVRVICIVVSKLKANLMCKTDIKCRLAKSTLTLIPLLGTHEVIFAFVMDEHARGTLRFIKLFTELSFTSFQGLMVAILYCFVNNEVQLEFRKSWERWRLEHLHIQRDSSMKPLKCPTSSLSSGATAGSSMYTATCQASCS
T2 sequence (P47871 26-477): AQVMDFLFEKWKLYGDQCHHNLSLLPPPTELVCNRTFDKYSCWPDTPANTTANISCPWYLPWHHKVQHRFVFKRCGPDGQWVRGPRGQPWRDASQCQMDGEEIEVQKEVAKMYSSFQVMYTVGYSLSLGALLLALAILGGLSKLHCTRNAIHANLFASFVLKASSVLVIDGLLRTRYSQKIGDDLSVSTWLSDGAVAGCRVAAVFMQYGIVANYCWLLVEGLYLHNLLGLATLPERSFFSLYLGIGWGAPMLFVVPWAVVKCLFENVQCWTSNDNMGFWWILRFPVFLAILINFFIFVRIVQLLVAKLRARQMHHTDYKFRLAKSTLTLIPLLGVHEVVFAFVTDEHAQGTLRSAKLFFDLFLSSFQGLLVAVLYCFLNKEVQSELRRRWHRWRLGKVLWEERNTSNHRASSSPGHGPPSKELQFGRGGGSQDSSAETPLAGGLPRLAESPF

Compound	EC50 (Human GIPr) [nM]	EC50 (Human GlucR) [nM]	EC50 (Human GLP1R) [nM]
CCCCCCCCCCCCCCCC(=O)N[C@@H](CCC(=O)NCCCC[C@H](NC(=O)[C@H](CO)NC(=O)[C@H](CC(=O)O)NC(=O)[C@H](CC(C)C)NC(=O)[C@H](Cc1ccc(O)cc1)NC(=O)[C@H](CCCCN)NC(=O)[C@H](CO)NC(=O)[C@H](Cc1ccc(O)cc1)NC(=O)[C@H](CC(=O)O)NC(=O)[C@H](CO)NC(=O)[C@@H](NC(=O)[C@H](Cc1ccccc1)NC(=O)[C@@H](NC(=O)CNC(=O)[C@H](CCC(=O)O)NC(=O)[C@H](CO)NC(=O)[C@@H](N)Cc1c[nH]cn1)[C@@H](C)O)[C@@H](C)O)C(=O)N[C@@H](CCCNC(=N)N)C(=O)N[C@@H](C)C(=O)N[C@@H](CCC(=O)O)C(=O)N[C@@H](CC(=O)O)C(=O)N[C@@H](Cc1ccccc1)C(=O)N[C@H](C(=O)N[C@@H](CCC(=O)O)C(=O)N[C@@H](Cc1c[nH]c2ccccc12)C(=O)N[C@@H](CC(C)C)C(=O)N[C@H](C(=O)N[C@@H](C)C(=O)NCC(=O)NCC(N)=O)C(C)C)C(C)C)C(=O)O [g639] (H-HSEGTFTSDYSKYLDSK([γGlu-Palmitoyl])RAEDFVEWLVAGG-NH2; N-terminus assumed)	82.1	82.1	0.244
CCCCCCCCCCCCCCCC(=O)N[C@@H](CCC(=O)NCCCC[C@H](NC(=O)[C@H](CO)NC(=O)[C@H](CC(=O)O)NC(=O)[C@H](CC(C)C)NC(=O)[C@H](Cc1ccc(O)cc1)NC(=O)[C@H](CCCCN)NC(=O)[C@H](CO)NC(=O)[C@H](Cc1ccc(O)cc1)NC(=O)[C@H](CC(=O)O)NC(=O)[C@H](CO)NC(=O)[C@@H](NC(=O)[C@H](Cc1ccccc1)NC(=O)[C@@H](NC(=O)CNC(=O)[C@H](CCC(N)=O)NC(=O)CNC(=O)[C@@H](N)Cc1c[nH]cn1)[C@@H](C)O)[C@@H](C)O)C(=O)N[C@@H](CCCNC(=N)N)C(=O)N[C@@H](C)C(=O)N[C@@H](CCCNC(=N)N)C(=O)N[C@@H](CC(=O)O)C(=O)N[C@@H](Cc1ccccc1)C(=O)N[C@H](C(=O)N[C@@H](CCC(=O)O)C(=O)N[C@@H](Cc1c[nH]c2ccccc12)C(=O)N[C@@H](CC(C)C)C(=O)N[C@H](C(=O)N[C@@H](C)C(=O)NCC(=O)NCC(N)=O)C(C)C)C(C)C)C(=O)O [g660] (H-HGQGTFTSDYSKYLDSK([γGlu-Palmitoyl])RARDFVEWLVAGG-NH2; N-terminus assumed)	332	1.52	1.06
CCCCCCCCCCCCCCCC(=O)N[C@@H](CCC(=O)NCCCC[C@H](NC(=O)[C@H](Cc1ccc(O)cc1)NC(=O)[C@H](CCCCN)NC(=O)[C@H](CO)NC(=O)[C@H](Cc1ccc(O)cc1)NC(=O)[C@H](CC(=O)O)NC(=O)[C@H](CO)NC(=O)[C@@H](NC(=O)[C@H](Cc1ccccc1)NC(=O)[C@@H](NC(=O)CNC(=O)[C@H](CCC(N)=O)NC(=O)[C@H](CO)NC(=O)[C@@H](N)Cc1c[nH]cn1)[C@@H](C)O)[C@@H](C)O)C(=O)N[C@@H](CC(=O)O)C(=O)N[C@@H](CO)C(=O)N[C@@H](CCCNC(=N)N)C(=O)N[C@@H](CO)C(=O)N[C@@H](C)C(=O)N[C@@H](CCC(N)=O)C(=O)N[C@@H](CC(=O)O)C(=O)N[C@@H](Cc1ccccc1)C(=O)N[C@H](C(=O)N[C@@H](CCC(N)=O)C(=O)N[C@@H](Cc1c[nH]c2ccccc12)C(=O)N[C@@H](CC(C)C)C(=O)N[C@H](C(=O)N[C@@H](C)C(=O)NCC(=O)NCC(N)=O)C(C)C)C(C)C)C(=O)O [g670] (H-HSQGTFTSDYSKYK([γGlu-Palmitoyl])DSRSAQDFVQWLVAGG-NH2; N-terminus assumed)	14.9	0.008	0.0203
CCCCCCCCCCCCCCCC(=O)N[C@@H](CCC(=O)NCCCC[C@H](NC(=O)[C@H](CO)NC(=O)[C@H](CC(=O)O)NC(=O)[C@H](CC(C)C)NC(=O)[C@H](Cc1ccc(O)cc1)NC(=O)[C@H](CCC(=O)O)NC(=O)[C@H](CO)NC(=O)[C@H](Cc1ccc(O)cc1)NC(=O)[C@H](CC(=O)O)NC(=O)[C@H](CO)NC(=O)[C@@H](NC(=O)[C@H](Cc1ccccc1)NC(=O)[C@@H](NC(=O)CNC(=O)[C@H](CCC(N)=O)NC(=O)CNC(=O)[C@@H](N)Cc1c[nH]cn1)[C@@H](C)O)[C@@H](C)O)C(=O)N[C@@H](CCCNC(=N)N)C(=O)N[C@@H](C)C(=O)N[C@@H](CCCNC(=N)N)C(=O)N[C@@H](CC(=O)O)C(=O)N[C@@H](Cc1ccccc1)C(=O)N[C@H](C(=O)N[C@@H](C)C(=O)N[C@@H](Cc1c[nH]c2ccccc12)C(=O)N[C@@H](CC(C)C)C(=O)N[C@H](C(=O)N[C@@H](C)C(=O)NCC(=O)NCC(N)=O)C(C)C)C(C)C)C(=O)O [g675] (H-HGQGTFTSDYSEYLDSK([γGlu-Palmitoyl])RARDFVAWLVAGG-NH2; N-terminus assumed)	1610	38.4	0.151
CCCCCCCCCCCCCCCC(=O)N[C@@H](CCC(=O)NCCCC[C@H](NC(=O)[C@H](CO)NC(=O)[C@H](CC(=O)O)NC(=O)[C@H](CC(C)C)NC(=O)[C@H](Cc1ccc(O)cc1)NC(=O)[C@H](CCCCN)NC(=O)[C@H](CO)NC(=O)[C@H](Cc1ccc(O)cc1)NC(=O)[C@H](CC(=O)O)NC(=O)[C@H](CO)NC(=O)[C@@H](NC(=O)[C@H](Cc1ccccc1)NC(=O)[C@@H](NC(=O)CNC(=O)[C@H](CCC(N)=O)NC(=O)CNC(=O)[C@@H](N)Cc1c[nH]cn1)[C@@H](C)O)[C@@H](C)O)C(=O)N[C@@H](CCCNC(=N)N)C(=O)N[C@@H](C)C(=O)N[C@@H](CCC(=O)O)C(=O)N[C@@H](CC(=O)O)C(=O)N[C@@H](Cc1ccccc1)C(=O)N[C@H](C(=O)N[C@@H](CCC(N)=O)C(=O)N[C@@H](Cc1c[nH]c2ccccc12)C(=O)N[C@@H](CC(C)C)C(=O)N[C@H](C(=O)N[C@@H](C)C(=O)NCC(=O)NCC(N)=O)C(C)C)C(C)C)C(=O)O [g678] (H-HGQGTFTSDYSKYLDSK([γGlu-Palmitoyl])RAEDFVQWLVAGG-NH2; N-terminus assumed)	123	4.52	0.106
CCCCCCCCCCCCCCCC(=O)N[C@@H](CCC(=O)NCCCC[C@H](NC(=O)[C@H](CO)NC(=O)[C@H](CC(=O)O)NC(=O)[C@H](CC(C)C)NC(=O)[C@H](Cc1ccc(O)cc1)NC(=O)[C@H](CCCCN)NC(=O)[C@H](CO)NC(=O)[C@H](Cc1ccc(O)cc1)NC(=O)[C@H](CC(=O)O)NC(=O)[C@H](CO)NC(=O)[C@@H](NC(=O)[C@H](Cc1ccccc1)NC(=O)[C@@H](NC(=O)CNC(=O)[C@H](CCC(N)=O)NC(=O)CNC(=O)[C@@H](N)Cc1c[nH]cn1)[C@@H](C)O)[C@@H](C)O)C(=O)N[C@@H](CCCNC(=N)N)C(=O)N[C@@H](C)C(=O)N[C@@H](CCC(N)=O)C(=O)N[C@@H](CC(=O)O)C(=O)N[C@@H](Cc1ccccc1)C(=O)N[C@H](C(=O)N[C@@H](CCC(=O)O)C(=O)N[C@@H](Cc1c[nH]c2ccccc12)C(=O)N[C@@H](CC(C)C)C(=O)N[C@H](C(=O)N[C@@H](C)C(=O)NCC(=O)NCC(N)=O)C(C)C)C(C)C)C(=O)O [g679] (H-HGQGTFTSDYSKYLDSK([γGlu-Palmitoyl])RAQDFVEWLVAGG-NH2; N-terminus assumed)	117	0.189	0.135
CCCCCCCCCCCCCCCC(=O)N[C@@H](CCC(=O)NCCCC[C@H](NC(=O)[C@H](CO)NC(=O)[C@H](CC(=O)O)NC(=O)[C@H](CC(C)C)NC(=O)[C@H](Cc1ccc(O)cc1)NC(=O)[C@H](CCCCN)NC(=O)[C@H](CO)NC(=O)[C@H](Cc1ccc(O)cc1)NC(=O)[C@H](CC(=O)O)NC(=O)[C@H](CO)NC(=O)[C@@H](NC(=O)[C@H](Cc1ccccc1)NC(=O)[C@@H](NC(=O)CNC(=O)[C@H](CCC(N)=O)NC(=O)CNC(=O)[C@@H](N)Cc1c[nH]cn1)[C@@H](C)O)[C@@H](C)O)C(=O)N[C@@H](CCCNC(=N)N)C(=O)N[C@@H](C)C(=O)N[C@@H](CCC(=O)O)C(=O)N[C@@H](CC(=O)O)C(=O)N[C@@H](Cc1ccccc1)C(=O)N[C@H](C(=O)N[C@@H](CCC(=O)O)C(=O)N[C@@H](Cc1c[nH]c2ccccc12)C(=O)N[C@@H](CC(C)C)C(=O)N[C@H](C(=O)N[C@@H](C)C(=O)NCC(=O)NCC(N)=O)C(C)C)C(C)C)C(=O)O [g680] (H-HGQGTFTSDYSKYLDSK([γGlu-Palmitoyl])RAEDFVEWLVAGG-NH2; N-terminus assumed)	96.7	3.68	0.195
CCCCCCCCCCCCCCCC(=O)N[C@@H](CCC(=O)NCCCC[C@H](NC(=O)[C@H](CO)NC(=O)[C@H](CC(=O)O)NC(=O)[C@H](CC(C)C)NC(=O)[C@H](Cc1ccc(O)cc1)NC(=O)[C@H](CCCCN)NC(=O)[C@H](CO)NC(=O)[C@H](Cc1ccc(O)cc1)NC(=O)[C@H](CC(=O)O)NC(=O)[C@H](CO)NC(=O)[C@@H](NC(=O)[C@H](Cc1ccccc1)NC(=O)[C@@H](NC(=O)CNC(=O)[C@H](CCC(=O)O)NC(=O)CNC(=O)[C@@H](N)Cc1c[nH]cn1)[C@@H](C)O)[C@@H](C)O)C(=O)N[C@@H](CCCNC(=N)N)C(=O)N[C@@H](C)C(=O)N[C@@H](CCC(=O)O)C(=O)N[C@@H](CC(=O)O)C(=O)N[C@@H](Cc1ccccc1)C(=O)N[C@H](C(=O)N[C@@H](CCC(=O)O)C(=O)N[C@@H](Cc1c[nH]c2ccccc12)C(=O)N[C@@H](CC(C)C)C(=O)N[C@H](C(=O)N[C@@H](C)C(=O)NCC(=O)NCC(N)=O)C(C)C)C(C)C)C(=O)O [g681] (H-HGEGTFTSDYSKYLDSK([γGlu-Palmitoyl])RAEDFVEWLVAGG-NH2; N-terminus assumed)	124	39.9	0.283
